Experiments:
Assay in all cases: Glucose transporter selectivity assay
Type in all cases: cell-based
[1] = target: T1, GLUT1 transporter (DLD1 cells) (Homo sapiens, UniProt P11166); conditions: 5 mM glucose, 1 uM Rotenone, 15 min, read-out: IC50 (nM) DLD1-WT Glust1
T1 construct: DLD1 cells for GLUT1 transporter; endogenous in cells; host or cells: DLD1 (DLD1-WT)
Description: (§1) Glucose transporter selectivity assays were done as described by Siebeneicher et al (ChemMedChem 2016, 11, 1-12) with the following adjustments; DLD1 cells for GLUT1 transporter, DLD1-GLUT1−/− cells (Horizon discovery) for GLUT3 transporter and DLD1-GLUT1−/− overexpressing hGLUT2 cells for GLUT2 transporter. The cells were plated overnight in 96-well plate at 80% confluency in starvation medium (DMEM without glucose, 0.5 mM glutamine, 1 mM pyruvate and 1% FBS). The cells were then pretreated for 30 min with 1 uM Rotenone and the inhibitors (compound 145) at different concentrations. The assay was initiated by adding glucose (5 mM for DLD1 cells, 10 mM for DLD1-Glut1−/−) or fructose (10 mM for DLD1-Glut1−/−(hGLUT2) cells) and the plates were incubated for 15 min at 37° C. At the end of the incubation Cell-titer Glo was added to the wells and luminescence was measured. The inhibition IC50 was calculated using Prism software.

[2] = target: T2, GLUT2 transporter (DLD1-GLUT1−/− overexpressing hGLUT2 cells) (Homo sapiens, UniProt P11168); conditions: 10 mM fructose, 1 uM Rotenone, 15 min, read-out: IC50 (nM) DLD-Glut1−/− (Glut2) Glut2
T2 construct: expressed in transfected cells; host or cells: DLD1-GLUT1−/−
Description: as §1

[3] = target: T3, GLUT3 transporter (DLD1-GLUT1−/− cells) (Homo sapiens, UniProt P11169); conditions: 10 mM glucose, 1 uM Rotenone, 15 min, read-out: IC50 (nM) DLD-Glut1−/− Glut3
T3 construct: DLD1-GLUT1−/− cells (Horizon discovery) for GLUT3 transporter; host or cells: DLD1-GLUT1−/−
Description: as §1

T2 sequence (P11168 whole entry): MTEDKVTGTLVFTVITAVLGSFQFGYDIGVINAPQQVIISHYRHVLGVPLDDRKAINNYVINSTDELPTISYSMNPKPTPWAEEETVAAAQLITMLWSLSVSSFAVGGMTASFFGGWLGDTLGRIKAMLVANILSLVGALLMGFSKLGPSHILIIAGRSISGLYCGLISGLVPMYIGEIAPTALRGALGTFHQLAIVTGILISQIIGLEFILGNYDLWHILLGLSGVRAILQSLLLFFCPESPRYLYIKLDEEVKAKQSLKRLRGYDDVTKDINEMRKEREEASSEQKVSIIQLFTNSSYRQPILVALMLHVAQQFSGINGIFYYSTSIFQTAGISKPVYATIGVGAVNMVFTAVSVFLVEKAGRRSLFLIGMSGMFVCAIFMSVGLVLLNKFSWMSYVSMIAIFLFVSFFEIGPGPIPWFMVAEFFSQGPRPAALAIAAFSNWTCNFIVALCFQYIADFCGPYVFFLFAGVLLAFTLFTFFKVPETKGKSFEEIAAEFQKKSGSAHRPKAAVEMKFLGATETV
T3 sequence (P11169 whole entry): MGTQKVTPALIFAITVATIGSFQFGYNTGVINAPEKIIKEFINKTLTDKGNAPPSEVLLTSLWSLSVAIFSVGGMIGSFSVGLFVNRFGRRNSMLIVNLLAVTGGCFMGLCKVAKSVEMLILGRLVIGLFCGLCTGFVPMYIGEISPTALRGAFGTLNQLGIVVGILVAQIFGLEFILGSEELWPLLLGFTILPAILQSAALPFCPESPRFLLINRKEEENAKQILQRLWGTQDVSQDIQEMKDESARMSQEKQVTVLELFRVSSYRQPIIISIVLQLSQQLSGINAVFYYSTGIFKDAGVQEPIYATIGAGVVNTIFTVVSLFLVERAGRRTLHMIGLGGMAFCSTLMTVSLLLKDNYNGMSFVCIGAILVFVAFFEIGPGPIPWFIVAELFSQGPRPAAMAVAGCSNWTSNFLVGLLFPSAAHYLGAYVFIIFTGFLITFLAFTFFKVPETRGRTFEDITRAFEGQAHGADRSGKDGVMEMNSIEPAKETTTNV
T1 sequence (P11166 whole entry): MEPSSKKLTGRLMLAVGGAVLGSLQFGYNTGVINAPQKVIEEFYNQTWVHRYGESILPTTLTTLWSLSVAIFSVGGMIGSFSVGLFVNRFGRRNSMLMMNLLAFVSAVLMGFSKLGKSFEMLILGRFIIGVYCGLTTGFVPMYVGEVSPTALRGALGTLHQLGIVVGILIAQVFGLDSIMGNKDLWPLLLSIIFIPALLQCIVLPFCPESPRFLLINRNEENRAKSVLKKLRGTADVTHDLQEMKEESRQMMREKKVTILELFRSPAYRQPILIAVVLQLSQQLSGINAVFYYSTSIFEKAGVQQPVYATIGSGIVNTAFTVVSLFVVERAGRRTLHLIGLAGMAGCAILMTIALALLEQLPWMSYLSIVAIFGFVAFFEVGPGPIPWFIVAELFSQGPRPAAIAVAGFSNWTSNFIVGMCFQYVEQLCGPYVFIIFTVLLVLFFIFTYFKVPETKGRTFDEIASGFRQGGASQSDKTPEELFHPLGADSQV

IC50 [1]: 19 nM
IC50 [2]: 14 nM
IC50 [3]: 2 nM
Structure (SMILES): CC1(C)Cc2nc3sc4c(NCCc5ccc6[nH]cnc6c5)ncnc4c3cc2CO1 [Compound 145]

Source: patent publication US20230084927A1, “GLUCOSE UPTAKE INHIBITORS AND USES THEREOF” (METABOMED LTD., priority 2019, published 2023)
